# Test results from paper PMC8344021, “Discovery of Small Molecule Bak Activator for Lung Cancer Therapy” (Theranostics, 2021).
# Columns and labels:
# [1] = system: MDA-MB-231, MCF7, HCT-116, Ramos, OPM-1, PANC-1 and U2OS cell lines; experiment: Dynamic BH3 profiling in other types of cancer cell lines; format: cell-based, human; conditions: 1μM, 16h
# Method: DBP using Bim peptide was carried out as described previously [24]-[26]. After treatment with BKA-073, venetoclax (ABT-199) or DMSO control for 16h, cells were collected, washed and resuspended at 2 x 10^6 cells/ mL in mannitol experimental buffer (MEB) [150 mM D-mannitol, 10 mM HEPES-KOH (pH 7.5), 50 mM KCl, 20 μM EGTA, 20 μM EDTA, 0.1% BSA, and 5 mM succinate] as described. One volume of the 4x cell suspension was added to one volume of a 4x dye solution containing 4 μM JC-1, […] oligomycin, 0.02% digitonin, 20mM β-mercaptoethanol in MEB. The 2x cell/dye mixture was allowed to rest for 5-10 min at room temperature to allow for permeabilization and JC-1 staining. A total of 15μl of the 2x cell/dye mixture was loaded into a 384-well plate that contained 15µL of Bim BH3 peptide (0.03, 0.1, 0.3, 1, and 3 μM) in MEB, shaken for 15 s inside the reader, and the fluorescence at 590 nm monitored every 5 min for 180 min at 32 °C. The dynamic BH3 profile (∆ % Priming) was calculated as described [24]-[26].
# Figure S2. BKA-073 induces mitochondrial priming and apoptosis in various type of cancers. (A) Expression levels of Bak were analyzed by Western blot in various type of cancer cell lines. (B-C) Various type of cancer cell lines were treated with BKA -073 (1µM) for 16h or 72h, followed by analysis of dynamic BH3 profiling (B) or apoptotic cell death (C), respectively. […]
# [2] = system: other Bcl2 family members (Bax, Bcl2, Bcl-XL, Bcl-w and Mcl-1); experiment: Competitive fluorescence polarization (FP) assay, other Bcl2 family members; format: binding, human
# Text: (§1) To confirm the binding of BKA-073 with Bak, we first conducted a competitive fluorescence polarization (FP) assay using purified human Bak protein, fluorescent Bak BH3 domain peptide, and BKA-073 as described, [37]-[40]. […] There are multiple amino acid differences in the BH3 domains between Bak and other Bcl2 family members, which helps to explain why BKA-073 only binds to Bak but not to other Bcl2 family members (i.e. Bax, Bcl2, Bcl-XL, Bcl-w and Mcl-1). In addition to the FP assay, isothermal titration calorimetry (ITC) was also employed to measure Bak/BKA-073 binding. […] In addition to human Bak/BKA-073 binding, we measured mouse Bak/BKA-073 binding using ITC.
# (§2) (1 x 10^5 cells) was transferred to a 5 ml culture tube, followed by the addition of 5 μl of FITC Annexin V and 5 μl propidium iodide (PI). […] Samples were analyzed by flow cytometry (BD FACSCantoTMII, BD Biosciences, San Jose, CA). ∆% cell death was calculated with the formula: (% cell death treated - % cell death non-treated) as described […]
# (§3) Fluorescence polarization (FP) assay
# (§4) Fluorescence polarization assay was carried out as described previously. […] The FP values (in millipolarization units) were measured using a fluorescence microplate reader at 485/530 nm (Gemini XPS, Molecular Devices). Data analysis and inhibit ory constant (Ki) value was determined by GraphPad prism software as described. […]
# human Bak protein = biological target: T1, human Bak protein (Homo sapiens, UniProt Q16611); experiment: Competitive fluorescence polarization (FP) assay with fluorescent Bak BH3 peptide; format: binding; conditions: purified human Bak protein, fluorescent Bak BH3 domain peptide; mean ± SD, n = 3
# T1 construct: purchased Creative Biomart BAK1-26166TH
# T1 sequence (Q16611 whole entry, the tested form may be a part): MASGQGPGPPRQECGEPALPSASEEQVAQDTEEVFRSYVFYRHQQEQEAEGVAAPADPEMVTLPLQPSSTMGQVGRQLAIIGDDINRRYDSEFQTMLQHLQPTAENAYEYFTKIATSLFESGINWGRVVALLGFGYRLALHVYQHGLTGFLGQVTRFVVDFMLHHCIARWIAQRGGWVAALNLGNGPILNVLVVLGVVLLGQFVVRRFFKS
# Text: as §1, §2, §3, §4
smiles,measurement,setting,value
COc1ccc2nc3ccccc3c(NCCNCC(C)O)c2c1 (stereo not drawn) [BKA-073],induction of mitochondrial priming,[1],potently induced
same,binding affinity with other Bcl2 family members,[2],very low binding affinity
same,Ki,human Bak protein,0.0723 ± 0.00596 µM
